Experimental data published in US6569891B1, “Antihypertensive compound from Caesalpinia brasiliensis” (Brigham Young University, priority 2002, dated 2003).

How the values were obtained:
[1] = system: hypertensive Sprague-Dawley rats; experiment: antihypertensive activity, sample in drinking water of hypertensive rats, tail cuff systolic blood pressure; format: in vivo; details: 100 μg/ml in drinking water, after 36 hours; for reduction in systolic blood pressure: tail cuff
Experimental: The crude extract and HPLC fractions prepared according to the procedure of Example 1 (with a preparative-scale (21.4×250 mm) column), were tested for antihypertensive activity by adding the sample to be tested at a concentration of 100 μg/ml to the drinking water of hypertensive Sprague-Dawley rats. After 36 hours, systolic blood pressures were measured with a Harvard tail cuff apparatus attached to a Beckman R511A recorder.

[2] = conversion of brazilin in hot water; format: physicochemical

In the case of `Oc1cc2c(cc1O)C1c3ccc(O)c(O)c3OCC1(O)C2` (single isomer, unassigned) [Peak B, haematoxylin], the “reduction in systolic blood pressure” value [1] is reported as roughly 12%.

In the case of `Oc1cc2c(cc1O)C13c4ccc(O)c(O)c4OCC1(C2)OC1(O)CC=C2CC4(O)COc5c(ccc(O)c5O)C4=C2C13` (single isomer, unassigned) [peak A], the “systolic blood pressure after treatment” value ([1]; brought into the normal range) is reported as 110-120 mm Hg and the “reduction in systolic blood pressure” value [1] is reported as “about 35%”.

For `Oc1ccc2c(c1)OC[C@]1(O)Cc3cc(O)c(O)cc3[C@H]21` [Brazilin, brazilin], the “stability in hot water” value [2] was “slowly converted to haematoxylin”.
